pEC50: −log10 of the molar value.
Target: T1, hGPR119 (Homo sapiens, UniProt Q8TDV5)
T1 construct: expressed in transfected cells; host or cells: CHO
T1 sequence (Q8TDV5 1-335): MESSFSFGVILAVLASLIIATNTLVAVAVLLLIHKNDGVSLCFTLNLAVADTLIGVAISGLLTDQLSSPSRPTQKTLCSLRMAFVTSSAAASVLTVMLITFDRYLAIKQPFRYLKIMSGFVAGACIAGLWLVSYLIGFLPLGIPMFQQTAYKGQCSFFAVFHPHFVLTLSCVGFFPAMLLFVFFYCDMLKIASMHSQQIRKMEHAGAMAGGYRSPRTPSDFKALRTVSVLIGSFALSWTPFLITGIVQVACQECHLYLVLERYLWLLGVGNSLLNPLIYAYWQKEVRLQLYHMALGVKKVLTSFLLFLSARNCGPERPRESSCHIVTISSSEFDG
Assay: In vitro cyclic AMP assay (Cisbio dynamic 2 HTRF kit) in CHO-hGPR119 cells
Type: cell-based
Details: 1 h, cAMP, compound at 1 μM, 60 min, read-out: Induction (% induction at 1 μM)
Description: cAMP measurements were done using Cisbio dynamic 2 HTRF kit according to the manufacturer's protocol. Briefly, CHO-hGPR119 cells were plated at a cell density of 5000 cells/well/5 μl into a white small volume 384 well plate. The final concentrations of IBMX and DMSO used were 1 mM and 0.5% respectively. Cells were treated with various concentrations of the test compound for 60 min at room temperature. Cells were lysed by buffer containing Anti-cAMP antibody and d2-cAMP reagents and incubated for 1 hour at room temperature. HTRF was measured at 337 nm excitation and emission wavelengths of 665 nm and 620 nm on a microplate reader (Flurostar, BMG Labtech). Graphpad prism software was utilized for EC50 determinations.

Row | Compound | activation at 1 µM
1 | C[C@H](Oc1nc2ccc(-c3ccc(S(C)(=O)=O)nc3)nc2s1)C1CCN(c2ncc(Cl)cn2)CC1 [Compound 1136, 2-((S)-1-(1-(5-chloropyrimidin-2-yl)piperidin-4-yl)ethoxy)-5-(6-(methylsulfonyl)pyridin-3-yl)thiazolo[5,4-b]pyridine] | 82%
2 | CN(C)C(=O)N1CCC(c2nc3ccc(-c4ccc(S(C)(=O)=O)cc4)nc3s2)CC1 [Compound 1028, N,N-dimethyl-4-(5-(4-(methylsulfonyl)phenyl)thiazolo[5,4-b]pyridin-2-yl)piperidine-1-carboxamide] | 2%
3 | CC(C)c1noc(N2CCC(C(C)Oc3nc4ccc(-c5ccc(C(=O)NC6CC6)cc5)nc4s3)CC2)n1 (centres unmarked) [Compound 1049, N-cyclopropyl-4-(2-(1-(1-(3-isopropyl-1,2,4-oxadiazol-5-yl)piperidin-4-yl)ethoxy)thiazolo[5,4-b]pyridin-5-yl)benzamide] | 14%
4 | CC(C=C1CCN(c2nc(C(C)C)no2)CC1)Oc1nc2ccc(-c3ccc(S(C)(=O)=O)cc3)nc2s1 (centres unmarked) [Compound 1044, 3-isopropyl-5-(4-(2-((5-(4-(methylsulfonyl)phenyl)thiazolo[5,4-b]pyridin-2-yl)oxy)propylidene)piperidin-1-yl)-1,2,4-oxadiazole] | 3%
5 | CC(C)c1noc(N2CCC(C(C)Oc3nc4ccc(-c5ccc(C#N)cc5)nc4s3)CC2)n1 (centres unmarked) [Compound 1065, 4-(2-(1-(1-(3-isopropyl-1,2,4-oxadiazol-5-yl)piperidin-4-yl)ethoxy)thiazolo[5,4-b]pyridin-5-yl)benzonitrile] | 60%
6 | CNS(=O)(=O)c1ccc(-c2ccc3nc(OC(C)C4CCN(c5nc(C(C)C)no5)CC4)sc3n2)cc1 (centres unmarked) [Compound 1061, 4-(2-(1-(1-(3-isopropyl-1,2,4-oxadiazol-5-yl)piperidin-4-yl)ethoxy)thiazolo[5,4-b]pyridin-5-yl)-N-methylbenzenesulfonamide] | 48%
7 | CC(C)c1noc(N2CCC([C@H](C)Oc3nc4ccc(-c5ccncc5)nc4s3)CC2)n1 [Compound 1092, (S)-3-isopropyl-5-(4-(1-((5-(pyridin-4-yl)thiazolo[5,4-b]pyridin-2-yl)oxy)ethyl)piperidin-1-yl)-1,2,4-oxadiazole] | 9%
8 | CC(C)c1noc(N2CCC(COc3nc4ccc(-c5ccncc5F)nc4s3)CC2)n1 [Compound 1084, 5-(4-(((5-(3-fluoropyridin-4-yl)thiazolo[5,4-b]pyridin-2-yl)oxy)methyl)piperidin-1-yl)-3-isopropyl-1,2,4-oxadiazole] | 12%
9 | CC(C)c1noc(N2CCC([C@H](C)Oc3nc4ccc(-c5ccc(S(C)(=O)=O)nc5F)nc4s3)CC2)n1 [Compound 1167, 2-((S)-1-(1-(3-isopropyl-1,2,4-oxadiazol-5-yl)piperidin-4-yl)ethoxy)-5-(2-fluoro-6-(methylsulfonyl)pyridin-3-yl)thiazolo[5,4-b]pyridine] | 20%
10 | CC(Oc1nc2ccc(-c3ccc(S(C)(=O)=O)nc3)nc2s1)C1CCN(c2cnc(Cl)cn2)CC1 (centres unmarked) [Compound 1151, 2-(1-(1-(5-chloropyrazin-2-yl)piperidin-4-yl)ethoxy)-5-(6-(methylsulfonyl)pyridin-3-yl)thiazolo[5,4-b]pyridine] | 66%
11 | CC(C)c1noc(N2CCC(C(C)Oc3nc4ccc(-c5ccc(S(C)(=O)=O)cc5)nc4s3)CC2)n1 (centres unmarked) [Compound 1020, 3-isopropyl-5-(4-(1-((5-(4-(methylsulfonyl)phenyl)thiazolo[5,4-b]pyridin-2-yl)oxy)ethyl)piperidin-1-yl)-1,2,4-oxadiazole] | 68%
12 | CC(C)c1noc(N2CCC(C(Oc3nc4ccc(-c5ccc(S(C)(=O)=O)cc5)nc4s3)C(F)(F)F)CC2)n1 (centres unmarked) [Compound 1094, 3-isopropyl-5-(4-(2,2,2-trifluoro-1-((5-(4-(methysulfonyl)phenyl)thiazolo[5,4-b]pyridin-2-yl)oxy)ethyl)piperidin-1-yl)-1,2,4-oxadiazole] | 24%
13 | CC(C)c1noc(N2CCC(C(C)Oc3nc4ccc(-c5ccc(NS(C)(=O)=O)cc5)nc4s3)CC2)n1 (centres unmarked) [Compound 1074, N-(4-(2-(1-(1-(3-isopropyl-1,2,4-oxadiazol-5-yl)piperidin-4-yl)ethoxy)thiazolo[5,4-b]pyridin-5-yl)phenyl)methanesulfonamide] | 39%
14 | CCc1noc(N2CCC(C(C)Oc3nc4ccc(-c5ccc(S(C)(=O)=O)nc5)nc4s3)CC2)n1 (centres unmarked) [Compound 1156, 2-(1-(1-(3-ethyl-1,2,4-oxadiazol-5-yl)piperidin-4-yl)ethoxy)-5-(6-(methylsulfonyl)pyridin-3-yl)thiazolo[5,4-b]pyridine] | 54%
15 | C[C@H](Oc1nc2ccc(-c3ccc(S(C)(=O)=O)nc3)nc2s1)C1CCN(c2ncc(C(F)(F)F)cn2)CC1 [Compound 1166, 2-((S)-1-(1-(5-(trifluoromethyl)pyrimidin-2-yl)piperidin-4-yl)ethoxy)-5-(6-(methylsulfonyl)pyridin-3-yl)thiazolo[5,4-b]pyridine] | 70%
16 | CC(C)c1noc(C2CCC(C(C)Oc3nc4ccc(-c5ccc(S(C)(=O)=O)cc5)nc4s3)CC2)n1 (centres unmarked) [Compound 1105, 3-isopropyl-5-(4-(1-((5-(4-(methylsulfonyl)phenyl)thiazolo[5,4-b]pyridin-2-yl)oxy)ethyl)cyclohexyl)-1,2,4-oxadiazole] | 13%
17 | CC(C)c1noc(N2CC[C@@H](COc3nc4ccc(-c5ccc(S(C)(=O)=O)cc5)nc4s3)[C@H](F)C2)n1 [Compound 1129, 5-((3S,4S)-3-fluoro-4-(((5-(4-(methylsulfonyl)phenyl)thiazolo[5,4-b]pyridin-2-yl)oxy)methyl)piperidin-1-yl)-3-isopropyl-1,2,4-oxadiazole] | 5%
18 | CC(C)c1noc(N2CCC(C(C)Oc3nc4ccc(-c5ccc(Cl)nc5)nc4s3)CC2)n1 (centres unmarked) [Compound 1142, 2-(1-(1-(3-isopropyl-1,2,4-oxadiazol-5-yl)piperidin-4-yl)ethoxy)-5-(6-chloropyridin-3-yl)thiazolo[5,4-b]pyridine] | 72%
19 | CC(C)c1noc(N2CCC([C@@H](C)Oc3nc4ccc(-c5ccncc5)nc4s3)CC2)n1 [Compound 1070, (R)-3-isopropyl-5-(4-(1-((5-(pyridin-4-yl)thiazolo[5,4-b]pyridin-2-yl)oxy)ethyl)piperidin-1-yl)-1,2,4-oxadiazole] | 83%
20 | CCCS(=O)(=O)N1CCC(C(C)Oc2nc3ccc(-c4ccc(S(C)(=O)=O)cc4)nc3s2)CC1 (centres unmarked) [Compound 1115, 5-(4-(methylsulfonyl)phenyl)-2-(1-(1-(propylsulfonyl)piperidin-4-yl)ethoxy)thiazolo[5,4-b]pyridine] | 12%
21 | Cc1cc(-c2ccc(S(C)(=O)=O)cc2)nc2sc(OCC3CCN(c4nc(C(C)C)no4)CC3)nc12 [Compound 1038, 3-isopropyl-5-(4-(((7-methyl-5-(4-(methylsulfonyl)phenyl)thiazolo[5,4-b]pyridin-2-yl)oxy)methyl)piperidin-1-yl)-1,2,4-oxadiazole] | 11%

Same assay, conditions: cAMP

Row | Compound | pEC50
22 | C[C@H](Oc1nc2ccc(-c3ccc(S(C)(=O)=O)nc3)nc2s1)C1CCN(c2ncc(Cl)cn2)CC1 [Compound 1136, 2-((S)-1-(1-(5-chloropyrimidin-2-yl)piperidin-4-yl)ethoxy)-5-(6-(methylsulfonyl)pyridin-3-yl)thiazolo[5,4-b]pyridine] | 6.30 to 7.00
23 | CC(C)c1noc(N2CCC(C(C)Oc3nc4ccc(-c5ccc(S(C)(=O)=O)cc5)nc4s3)CC2)n1 (centres unmarked) [Compound 1020, 3-isopropyl-5-(4-(1-((5-(4-(methylsulfonyl)phenyl)thiazolo[5,4-b]pyridin-2-yl)oxy)ethyl)piperidin-1-yl)-1,2,4-oxadiazole] | 6.30 to 7.00
24 | CC(C)c1noc(N2CCC([C@H](C)Oc3nc4ccc(-c5ccncc5F)nc4s3)CC2)n1 [Compound 1096, (S)-5-(4-(1-((5-(3-fluoropyridin-4-yl)thiazolo[5,4-b]pyridin-2-yl)oxy)ethyl)piperidin-1-yl)-3-isopropyl-1,2,4-oxadiazole] | 7.00 to 7.30
25 | CC(C)c1noc(N2CCC([C@@H](C)Oc3nc4ccc(-c5ccncc5)nc4s3)CC2)n1 [Compound 1070, (R)-3-isopropyl-5-(4-(1-((5-(pyridin-4-yl)thiazolo[5,4-b]pyridin-2-yl)oxy)ethyl)piperidin-1-yl)-1,2,4-oxadiazole] | 7.00 to 7.30

Same assay, conditions: cAMP, compound at 1 μM, 60 min

Row | Compound | Induction (% induction at 1 μM)
26 | CC(C)c1noc(N2CCC([C@H](C)Oc3nc4ccc(-c5ccncc5F)nc4s3)CC2)n1 [Compound 1096, (S)-5-(4-(1-((5-(3-fluoropyridin-4-yl)thiazolo[5,4-b]pyridin-2-yl)oxy)ethyl)piperidin-1-yl)-3-isopropyl-1,2,4-oxadiazole] | 66%
